What was measured:
Cdc7 = Cdc7 (Homo sapiens, UniProt O00311); assay: Cdc7 biochemical assay, ADPGlo assay format
Procedure: The biochemical activity of compounds was determined by incubation with specific enzymes and substrate, followed by quantification of the ADP product. Compounds were 4-fold serially diluted from 10 to 0.0006 uM; in the case of the pre-incubation step, the enzyme is added to the inhibitor solution and the mixture is left to incubate for 30 minutes at room temperature (r.t.). The reaction started with the addition of the substrate and the ATP, when the enzyme was already present in the preincubation step, or substrate, ATP and enzyme when the preincubation step was not present. The concentrations of ATP, substrate and reaction buffer are described above. The assays were run in a robotized format on 384-well plates. […] At the end of the incubation time, an equal volume of ADPGlo Reagent 1 (Promega) was added to stop the reaction and to remove all unreacted ATP. After 60 minutes, an equal volume of ADPGlo Reagent 2 (Promega) was added to convert ADP in ATP and then ATP in light by luciferase reaction.
y=bottom+(top−bottom)/(1+10^((log IC50−x)*slope))
where x is the logarithm of the inhibitor concentration, y is the response; y starts at bottom and goes to top with a sigmoid shape.

[1] = biological target: T1, aldehyde oxidases (human liver cytosol) (Homo sapiens, UniProt Q06278); format: in vitro ADME; settings: human liver cytosol 1 mg/mL, 1 μM compound; for HLC % remaining (1 h incub.): 60 min incubation; for HLC % remaining (1 h incub.) / HLC T½ min: pH 7.4, 37° C.; for IntCl (Intrinsic Clearance): half-life approach
T1 construct: added to human liver cytosol (1 mg/mL protein content); from tissue; host or cells: human liver cytosol
T1 sequence (Q06278 whole entry): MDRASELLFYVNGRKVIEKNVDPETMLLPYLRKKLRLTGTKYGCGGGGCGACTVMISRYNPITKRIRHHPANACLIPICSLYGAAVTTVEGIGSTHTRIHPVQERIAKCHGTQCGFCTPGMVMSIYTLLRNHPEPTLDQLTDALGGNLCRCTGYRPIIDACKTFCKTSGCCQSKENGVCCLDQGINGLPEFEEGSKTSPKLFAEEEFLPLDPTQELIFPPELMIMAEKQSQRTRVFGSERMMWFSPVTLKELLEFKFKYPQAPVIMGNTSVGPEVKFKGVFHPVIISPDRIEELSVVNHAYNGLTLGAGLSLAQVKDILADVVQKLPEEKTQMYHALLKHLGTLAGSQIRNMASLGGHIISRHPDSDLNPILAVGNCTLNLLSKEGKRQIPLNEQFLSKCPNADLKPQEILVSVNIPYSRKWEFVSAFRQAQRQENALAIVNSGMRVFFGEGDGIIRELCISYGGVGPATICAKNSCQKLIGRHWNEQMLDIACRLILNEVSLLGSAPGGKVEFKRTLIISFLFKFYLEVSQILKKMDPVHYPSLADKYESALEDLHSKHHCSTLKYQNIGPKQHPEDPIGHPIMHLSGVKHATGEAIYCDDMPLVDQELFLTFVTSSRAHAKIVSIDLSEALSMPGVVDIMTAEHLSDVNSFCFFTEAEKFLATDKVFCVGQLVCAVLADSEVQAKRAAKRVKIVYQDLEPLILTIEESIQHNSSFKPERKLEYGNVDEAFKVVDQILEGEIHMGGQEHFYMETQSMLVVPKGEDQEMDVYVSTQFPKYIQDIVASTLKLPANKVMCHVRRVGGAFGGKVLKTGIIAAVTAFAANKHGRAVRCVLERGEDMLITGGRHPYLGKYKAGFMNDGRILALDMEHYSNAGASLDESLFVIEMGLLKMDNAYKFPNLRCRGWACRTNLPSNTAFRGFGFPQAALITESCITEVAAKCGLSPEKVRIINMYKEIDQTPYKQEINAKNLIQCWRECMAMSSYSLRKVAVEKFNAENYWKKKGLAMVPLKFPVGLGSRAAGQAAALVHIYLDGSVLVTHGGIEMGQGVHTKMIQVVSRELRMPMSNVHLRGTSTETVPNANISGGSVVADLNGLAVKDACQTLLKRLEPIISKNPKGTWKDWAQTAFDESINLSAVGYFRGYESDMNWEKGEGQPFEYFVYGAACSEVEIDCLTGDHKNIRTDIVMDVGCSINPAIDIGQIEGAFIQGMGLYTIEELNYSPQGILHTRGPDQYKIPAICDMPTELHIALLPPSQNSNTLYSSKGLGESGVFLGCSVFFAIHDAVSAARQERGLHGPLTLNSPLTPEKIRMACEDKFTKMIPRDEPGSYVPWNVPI
Procedure: The aldehyde oxidases involvement in the metabolism of the test item was determined by comparison of the intrinsic clearance values in the presence and absence of aldehyde oxidases inhibitor hydralazine hydrochloride. The purpose of the study was to evaluate the in-vitro intrinsic clearance, the metabolic stability towards aldehyde oxidases (AO) activity and the metabolism of the test item in human liver cytosol. The intrinsic clearance was determined using the half-life approach, by measuring the substrate disappearance along 60 minutes incubation with human liver cytosol. Incubations were performed at the concentration of 1 μM. […] HPLC-MS/MS was used for the detection of the compound left over during the incubation. For intrinsic clearance determination samples were analyzed by high performance liquid chromatography (HPLC) on-line with mass spectrometry (MS) equipment. For the determination of aldehyde oxidases activity (i.e. positive control) of cytosol, phthalazine was incubated with human liver cytosol in presence and absence of the aldehyde oxidases inhibitor. On the day of the incubation, the compound was dissolved in DMSO at the concentration of 10 mM. Aliquots of this solution were added to the test system to a final concentration of […]. The percentage of DMSO in the final incubates was […]. Aliquots of the test item were added to human liver cytosol (1 mg/mL protein content) in Dulbecco's buffer, pH 7.4 at 37° C., to reach final concentration of 1 μM. Incubations were performed in a 48-well plate, under shaking. At 0, 5, 10, 20, 30 and 60 minutes incubation, 50 μL aliquots of the incubate were sampled, poured in 80 μL of ice-cold acetonitrile and 20 μL of 1 μM warfarin in acetonitrile (injection control) and centrifuged at 2500 rpm for 20 minutes. The supernatant was immediately analysed by LC-MS/MS.
The test item was incubated in parallel, in duplicate, at the concentration of 1 μM in Dulbecco's buffer, pH 7.4 for 60 min at 37° C. in the presence of 10 μM hydralazine hydrochloride (aldehyde oxidases inhibitor).
The chemical stability of the test item was checked in parallel by incubating the test item in single at the concentration of 1 μM in Dulbecco's buffer, pH 7.4 for 60 min at 37° C. (negative control).
The intrinsic clearance (CLint) was calculated using the half-life approach. Half-life and CLint were determined from the concentration (area counts) remaining at the different sampling points using the LC-MS/MS method. By plotting the natural logarithmic area of the compound remaining against the time, the slope was calculated by linear regression analysis and converted into the half-life (t½) and CLint expressed as μL/min/mg protein according to the following formulae: […]

Cdc7, sequence (O00311 whole entry): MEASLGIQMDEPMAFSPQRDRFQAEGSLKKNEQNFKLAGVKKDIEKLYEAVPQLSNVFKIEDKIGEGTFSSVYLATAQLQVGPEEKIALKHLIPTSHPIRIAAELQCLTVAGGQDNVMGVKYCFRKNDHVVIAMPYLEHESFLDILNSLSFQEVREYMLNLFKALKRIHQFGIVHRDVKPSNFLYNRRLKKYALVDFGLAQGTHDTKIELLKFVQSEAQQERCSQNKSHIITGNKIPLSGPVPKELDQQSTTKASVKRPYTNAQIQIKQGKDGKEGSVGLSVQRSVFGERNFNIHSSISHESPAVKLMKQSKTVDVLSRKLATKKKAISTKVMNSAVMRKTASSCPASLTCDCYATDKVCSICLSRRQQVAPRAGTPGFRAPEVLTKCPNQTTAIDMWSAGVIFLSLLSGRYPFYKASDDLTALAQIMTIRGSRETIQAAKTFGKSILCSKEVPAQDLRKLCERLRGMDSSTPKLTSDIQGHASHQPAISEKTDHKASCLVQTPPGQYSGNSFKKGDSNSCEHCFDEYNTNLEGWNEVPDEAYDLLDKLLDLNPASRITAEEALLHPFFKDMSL
Cdc7, sequence (Q9UBU7 whole entry partner): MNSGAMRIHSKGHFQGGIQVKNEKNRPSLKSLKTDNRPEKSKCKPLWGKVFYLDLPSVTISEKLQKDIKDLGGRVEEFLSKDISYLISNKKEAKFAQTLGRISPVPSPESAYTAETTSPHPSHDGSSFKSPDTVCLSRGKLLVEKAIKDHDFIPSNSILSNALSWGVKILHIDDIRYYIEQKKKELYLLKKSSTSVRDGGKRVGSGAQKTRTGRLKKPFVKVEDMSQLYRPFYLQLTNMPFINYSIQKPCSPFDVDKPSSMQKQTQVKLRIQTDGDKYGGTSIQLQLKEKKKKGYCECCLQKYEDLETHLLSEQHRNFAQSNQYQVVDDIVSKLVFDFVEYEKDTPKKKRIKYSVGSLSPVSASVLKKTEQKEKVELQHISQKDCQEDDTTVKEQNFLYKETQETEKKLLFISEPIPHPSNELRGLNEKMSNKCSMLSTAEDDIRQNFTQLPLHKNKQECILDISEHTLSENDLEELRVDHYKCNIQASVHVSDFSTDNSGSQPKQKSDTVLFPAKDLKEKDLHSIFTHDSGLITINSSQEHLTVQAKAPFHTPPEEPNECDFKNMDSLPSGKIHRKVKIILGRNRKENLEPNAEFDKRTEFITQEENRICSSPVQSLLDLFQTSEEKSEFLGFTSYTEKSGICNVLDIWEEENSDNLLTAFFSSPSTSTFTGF

Row | Structure (SMILES) | IC50 (Cdc7) [nM] | HLC % remaining (1 h incub.) [1] [%] | IntCl (Intrinsic Clearance) [1] [μL/min/mg protein] | HLC T½ min [1] [min]
1 | NC(=O)c1cc(-c2ccnc3[nH]ccc23)[nH]c1-c1cccc(Cl)c1F [comp 1, 2-(3-chloro-2-fluorophenyl)-5-(1H-pyrrolo[2,3-b]pyridin-4-yl)-1H-pyrrole-3-carboxamide] | 4 | 100 | 2.9 | 239
2 | NC(=O)c1cc(-c2ccnc3[nH]ccc23)[nH]c1-c1ccc(Cl)cc1F [comp 2, 2-(4-chloro-2-fluorophenyl)-5-(1H-pyrrolo[2,3-b]pyridin-4-yl)-1H-pyrrole-3-carboxamide] | 3 | 98 | 2.9 | 239
3 | NC(=O)c1cc(-c2ccnc3[nH]ccc23)[nH]c1-c1ccc(F)cc1Cl [comp 3, 2-(2-chloro-4-fluorophenyl)-5-(1H-pyrrolo[2,3-b]pyridin-4-yl)-1H-pyrrole-3-carboxamide] | 1 | 97 | 2.9 | 239
4 | NC(=O)c1cc(-c2ccnc3[nH]ccc23)[nH]c1-c1ccc(F)cc1F [comp 4, 2-(2,4-difluorophenyl)-5-(1H-pyrrolo[2,3-b]pyridin-4-yl)-1H-pyrrole-3-carboxamide] | 4 | 100 | 2.9 | 239
5 | NC(=O)c1cc(-c2ccnc3[nH]ccc23)[nH]c1-c1ccc(C(F)(F)F)cc1Cl [comp 5, 2-[2-chloro-4-(trifluoromethyl)phenyl]-5-(1H-pyrrolo[2,3-b]pyridin-4-yl)-1H-pyrrole-3-carboxamide] | 1 | 100 | 2.9 | 239
6 | NC(=O)c1cc(-c2ccnc3[nH]ccc23)[nH]c1-c1cccc(F)c1F [comp 6, 2-(2,3-difluorophenyl)-5-(1H-pyrrolo[2,3-b]pyridin-4-yl)-1H-pyrrole-3-carboxamide] | 5 | 100 | 2.9 | 239
7 | NC(=O)c1cc(-c2ccnc3[nH]ccc23)[nH]c1-c1cccc(Cl)c1Cl [comp 7, 2-(2,3-dichlorophenyl)-5-(1H-pyrrolo[2,3-b]pyridin-4-yl)-1H-pyrrole-3-carboxamide] | 1 | 95 | 2.9 | 239
8 | Cc1ccc(-c2[nH]c(-c3ccnc4[nH]ccc34)cc2C(N)=O)c(C(F)(F)F)c1 [comp 8, 2-[4-methyl-2-(trifluoromethyl)phenyl]-5-(1H-pyrrolo[2,3-b]pyridin-4-yl)-1H-pyrrole-3-carboxamide] | 3 | 85 | 2.9 | 239
9 | Cc1ccc(-c2[nH]c(-c3ccnc4[nH]ccc34)cc2C(N)=O)c(Cl)c1 [comp 9, 2-(2-chloro-4-methylphenyl)-5-(1H-pyrrolo[2,3-b]pyridin-4-yl)-1H-pyrrole-3-carboxamide] | 1 | 100 | 2.9 | 239
10 | Cc1ccc(-c2[nH]c(-c3ccnc4[nH]ccc34)cc2C(N)=O)c(F)c1F [comp 10, 2-(2,3-difluoro-4-methylphenyl)-5-(1H-pyrrolo[2,3-b]pyridin-4-yl)-1H-pyrrole-3-carboxamide] | 3 | 95 | 2.9 | 239
11 | Cc1cc(C(F)(F)F)ccc1-c1[nH]c(-c2ccnc3[nH]ccc23)cc1C(N)=O [comp 11, 2-[2-methyl-4-(trifluoromethyl)phenyl]-5-(1H-pyrrolo[2,3-b]pyridin-4-yl)-1H-pyrrole-3-carboxamide] | 7 | 100 | 2.9 | 239
12 | COc1cccc(-c2[nH]c(-c3ccnc4[nH]ccc34)cc2C(N)=O)c1F [comp 12, 2-(2-fluoro-3-methoxyphenyl)-5-(1H-pyrrolo[2,3-b]pyridin-4-yl)-1H-pyrrole-3-carboxamide] | 4 | 97 | 2.9 | 239
13 | NC(=O)c1cc(-c2ccnc3[nH]ccc23)[nH]c1-c1cccc(F)c1Cl [comp 13, 2-(2-chloro-3-fluorophenyl)-5-(1H-pyrrolo[2,3-b]pyridin-4-yl)-1H-pyrrole-3-carboxamide] | 1 | 100 | 2.9 | 239
14 | Cc1cccc(-c2[nH]c(-c3ccnc4[nH]ccc34)cc2C(N)=O)c1F [comp 14, 2-(2-fluoro-3-methylphenyl)-5-(1H-pyrrolo[2,3-b]pyridin-4-yl)-1H-pyrrole-3-carboxamide] | 10 | 100 | 2.9 | 239
15 | Cc1c(-c2[nH]c(-c3ccnc4[nH]ccc34)cc2C(N)=O)cccc1C(F)(F)F [comp 15, 2-[2-methyl-3-(trifluoromethyl)phenyl]-5-(1H-pyrrolo[2,3-b]pyridin-4-yl)-1H-pyrrole-3-carboxamide] | 6 | 100 | 2.9 | 239
16 | NC(=O)c1cc(-c2cc(N)ncn2)[nH]c1-c1ccc(Cl)cc1Cl [compound 42, 5-(6-aminopyrimidin-4-yl)-2-(2,4-dichlorophenyl)-1H-pyrrole-3-carboxamide] | 90 | 100 | 2.9 | 239
17 | NC(=O)c1cc(-c2cn[nH]c2)[nH]c1-c1ccc(Cl)cc1Cl [compound 43, 2-(2,4-dichlorophenyl)-5-(1H-pyrazol-4-yl)-1H-pyrrole-3-carboxamide] | 13 | 100 | 2.9 | 239
18 | Cc1n[nH]cc1-c1cc(C(N)=O)c(-c2ccc(Cl)cc2Cl)[nH]1 [compound 44, 2-(2,4-dichlorophenyl)-5-(3-methyl-1H-pyrazol-4-yl)-1H-pyrrole-3-carboxamide] | 48 | 100 | 2.9 | 239
19 | NC(=O)c1cc(-c2ccnc3[nH]ccc23)n(CCC(F)(F)F)c1-c1ccc(Cl)cc1Cl [compound 55, 2-(2,4-dichlorophenyl)-5-(1H-pyrrolo[2,3-b]pyridin-4-yl)-1-(3,3,3-trifluoropropyl)-1H-pyrrole-3-carboxamide] | 996 | – | – | –
20 | Cn1c(-c2ccnc3[nH]ccc23)cc(C(N)=O)c1-c1ccc(Cl)cc1Cl [compound 56, 2-(2,4-dichlorophenyl)-1-methyl-5-(1H-pyrrolo[2,3-b]pyridin-4-yl)-1H-pyrrole-3-carboxamide] | 14 | – | – | –
21 | CCn1c(-c2ccnc3[nH]ccc23)cc(C(N)=O)c1-c1ccc(Cl)cc1Cl [compound 57, 2-(2,4-dichlorophenyl)-1-ethyl-5-(1H-pyrrolo[2,3-b]pyridin-4-yl)-1H-pyrrole-3-carboxamide] | 17 | – | – | –

From patent publication US20240217969A1, “SUBSTITUTED PYRROLE CARBOXAMIDES, PROCESS FOR THEIR PREPARATION AND THEIR USE AS KINASE INHIBITORS” (priority 2021, published 2024)
